Reference: ChEMBL document CHEMBL1649358, “Induced production of bromomethylchlamydosporols A and B from the marine-derived fungus Fusarium tricinctum” (2010)
Values after ≈ are worked out from the molar mass of the structure shown.

Tests used:
Assay type in all cases: functional
Staphylococcus aureus [1] = experiment: Antibacterial activity against Staphylococcus aureus ATCC 29213 after 18 hrs by broth dilution method; conditions: ATCC 29213, 18 h
Staphylococcus aureus [2] = experiment: Antibacterial activity against methicillin-resistant Staphylococcus aureus CCARM 3167 after 18 hrs by broth dilution method; conditions: CCARM 3167, 18 h
Staphylococcus aureus [3] = experiment: Antibacterial activity against multidrug-resistant Staphylococcus aureus CCARM 3089 after 18 hrs by broth dilution method; conditions: CCARM 3089, 18 h

Structure (SMILES)	MIC (Staphylococcus aureus [1])	MIC (Staphylococcus aureus [2])	MIC (Staphylococcus aureus [3])
COc1cc(=O)oc2c1COC(C)(O)[C@H]2C (mixture of isomers) [CHLAMYDOSPOROL]	31.5 µg/mL	31.5 µg/mL	62.5 µg/mL
COc1cc(=O)oc2c1CO[C@@](C)(OC)[C@@]2(C)Br [BROMOMETHYLCHLAMYDOSPOROL A]	15.6 µg/mL (≈ 48.9 µM)	15.6 µg/mL (≈ 48.9 µM)	15.6 µg/mL (≈ 48.9 µM)
COc1c2c(oc(=O)c1Br)C(C)(Br)[C@](C)(OC)OC2 (some centres not stated) [BROMOMETHYLCHLAMYDOSPOROL B]	15.6 µg/mL (≈ 39.2 µM)	15.6 µg/mL (≈ 39.2 µM)	15.6 µg/mL (≈ 39.2 µM)
C/C=C(\C)[C@H]1[C@@H](/C=C/C=C(\C)[C@@H](O)[C@@H](C)CO)[C@@H]2C[C@@H]3O[C@]3(C)C[C@H]2[C@@H]2O[C@@]21C [FUSARIELIN A]	31.5 µg/mL (≈ 78.2 µM)	31.5 µg/mL (≈ 78.2 µM)	62.5 µg/mL (≈ 155 µM)
